Read-outs that look alike come from different tables or passages of the source.
Experiments:
[1] = Plasma PK of non-radiolabeled encorafenib; format: in vivo, human; conditions: for Vd/F: read-out: Vz/F
[2] = Safety and tolerability in healthy male subjects; format: in vivo, human
Experimental: This study (ClinicalTrials.gov ID, NCT01436656) was a single‐center, open‐label study to investigate the ADME of encorafenib after a single oral administration of 100 mg (90 μCi) [^14C] encorafenib in healthy male subjects. A total of four evaluable subjects were enrolled and dosed. The study consisted of a screening period, a baseline period, a single dose treatment and a 96 h post‐dose observation period. A safety follow‐up assessment by phone was conducted 30 days after administration of 100 mg (90 μCi) [^14C] encorafenib. Subjects completed an overnight fast of at least 10 h prior to administration of the study drug. Subjects were discharged from the clinical site provided that the subject's recovery of [^14C] encorafenib‐related radioactivity was at least 90% of the administered dose. The study duration period could be prolonged if the subject's recovery of related radioactivity was less than 90% by the fifth‐day post‐treatment or the subject had two consecutive 24‐h combined urine and fecal collections yielding ≥1% of dose.

[3] = design: method as in data on file; conditions: in vitro study; ref data on file; cited from earlier work
[4] = tested on: CYP3A4; design: method as in earlier work; conditions: cited from earlier work
[5] = tested on: CYP2C19; design: method as in earlier work; conditions: cited from earlier work
[6] = tested on: CYP2D6; design: method as in earlier work; conditions: cited from earlier work
[7] = design: method as in earlier work; conditions: cited from earlier work
[8] = human, plasma, oral, 100 mg, GeoMean (GeoCV%)
[9] = human, plasma, oral, 100 mg, Mean (SD)
[10] = human, plasma, oral, 100 mg, Median (Minimum–Maximum)
[11] = plasma, Median (Minimum–Maximum)
[12] = single 100 mg oral dose, 4 healthy male subjects

COC(=O)N[C@@H](C)CNc1nccc(-c2cn(C(C)C)nc2-c2cc(Cl)cc(NS(C)(=O)=O)c2F)n1 [encorafenib]
Variability of apparent oral clearance, this study ([1]; healthy subjects, 100 mg): 37% | AUC(0-t) ([1]; human, plasma, oral, 100 mg, plasma, GeoMean (GeoCV%), read-out: AUC0-24): 3680 ng·h/mL | AUC(0-t) ([1]; human, plasma, oral, 100 mg, plasma, GeoMean (GeoCV%), read-out: AUClast): 3720 ng·h/mL | AUC(0-t) ([1]; human, plasma, oral, 100 mg, plasma, Mean (SD), read-out: AUC0-24): 3850 ng·h/mL | AUC(0-t) ([1]; human, plasma, oral, 100 mg, plasma, Mean (SD), read-out: AUClast): 3910 ng·h/mL | Vd/F ([1]; human, plasma, oral, 100 mg, plasma, Mean (SD)): 235 L | AUC(0-t) ([1]; human, plasma, oral, 100 mg, plasma, Median (Minimum–Maximum), read-out: AUC0-24): 3570 ng·h/mL | AUC(0-t) ([1]; human, plasma, oral, 100 mg, plasma, Median (Minimum–Maximum), read-out: AUClast): 3600 ng·h/mL | Vd/F ([1]; human, plasma, oral, 100 mg, plasma, Median (Minimum–Maximum)): 228 L | AUC(0-inf) [1, 8]: 3750 ng·h/mL | Cmax [1, 8]: 1040 ng/mL | half-life [1, 8]: 5.88 h | Cmax [1, 9]: 1050 ng/mL | half-life [1, 9]: 6.11 h | AUC(0-inf) [1, 10]: 3610 ng·h/mL | Cmax [1, 10]: 1080 ng/mL | half-life [1, 10]: 6.32 h | Vd/F ([1]; male, human, plasma, oral, 100 mg, plasma, GeoMean (GeoCV%)): ~226 L | Tmax ([1]; male, human, plasma, oral, 100 mg, plasma, Median (Minimum–Maximum), read-out: Tmax): 0.77 h | AUC(0-inf) ([1]; male, human, plasma, po, 100 mg, Mean (SD), n=4, 100 mg oral): 3940 ng·h/mL | Vz/F ([1]; plasma, GeoMean (GeoCV%)): 226 (32.7) L | CL/F ([1]; plasma, Mean (SD)): 27.9 (9.15) L/h | CL/F [1, 11]: 28.4 (17.1–37.6) L/h | Tmax [1, 11]: 0.767 (0.500–1.00) h | Grade 2, 3 or 4 adverse events ([2]; single 100 mg oral dose): No grade 2, 3 or 4 AEs were reported | Subjects with AEs suspected to be related to the study drug [2, 12]: 50.0% | Subjects with at least one adverse event [2, 12]: 75.0% | Laboratory evaluations, vital signs, ECG ([2]; single-dose administration): no significant abnormalities | Overall safety and tolerability ([2]; single-dose administration): safe and well‐tolerated | [blood]/[plasma] in vitro [3]: 0.75 ± 0.21 | Contribution of CYP3A4 to metabolism [4]: 83% | Contribution of CYP2C19 to metabolism [5]: 16% | Contribution of CYP2D6 to metabolism [6]: 1% | Dose proportionality of systemic exposure ([7]; after a single dose, dose range 50 mg to 700 mg): dose‐proportional | Variability of apparent oral clearance, encorafenib labeling [7]: 54%

Reference: paper PMC10541456, “A phase I, single‐center, open‐label study to investigate the absorption, distribution, metabolism and excretion of encorafenib following a single oral dose of 100 mg [ ^14C] encorafenib in healthy male subjects” (Pharmacology Research & Perspectives, 2023)
